“And” between values parts separate entries of the source, which are not always exact repeats. Equal entries are not always repeated.
Tests used:
[1] = Skin blood flow in rats after topical application, measured with a Laser Doppler Flowmeter; assay type: in vivo, Wistar male rats; details: rat, measured after 20 minutes
Description: Wistar male rats (180 to 200 g weights) were employed as experimental animals. The quantity of the skin blood in this experiment was measured with a Laser Doppler Flowmeter (PF2B, Perimed). The backs of rats were sheared. A day later, the rats were anesthetisized with urethane (1 g/Kg) and a quantity of blood flow was measured. This quantity was defined as a normal flow.
Immediately after the measurement of the normal flow, a group of rats were treated with topical application of 25 μl of test liquid in 50% ethanol solution and a group of rats were treated with topical application of 50% ethanol solution as a control. The skin blood flow was measured at 20 minute, 40 minute and 60 minute intervals. MeOH extract from Calanthe discolor Lindl. (CDM-ext: 0.5% and 2.0%), Calanthoside A (0-20%), and indilbin (0.2%) were tested, and the results for the extract are shown in Table 1.
The ability of Calanthoside B to increase skin blood flow can be used to promote hair growth.

tyrosinase = assay: Tyrosinase inhibition (L-Dopa, dopachrome absorbance at 475 nm, procedure of Manson and Peterson); assay type: biochemical, mushroom
Description: This experiment was conducted according to the procedure of Manson and Peterson. A 0.5 ml L-Dopa solution (0.03% in pH6.8 PBS) was added to 0.5 ml of a test liquid, and incubated for 5 minutes at 25° C. After which, a 0.5 ml of tyrosinase solution (obtained from a mushroom) was added and the mixture was further incubated for 5 minutes at 25° C. […] Kojic acid was used for a positive control test.

In the case of OCC1O[C@@H](OCC2O[C@@H](Oc3c[nH]c4ccccc34)C(O)C(O)[C@@H]2O)C(O)C(O)[C@@H]1O (stereo partly drawn) [Calanthoside A, 3-O-β-D-glucopyranosyl (1-6)-β-D-glucopyranosylindole], the “skin blood flow (result in words)” value ([1]; Calanthoside A (0-20%)) was “increases skin blood flow”, the “% Inhibition” value (tyrosinase; concentration 50 μg/ml) was 38.6% and the “% Inhibition” value (tyrosinase; concentration 200 μg/ml) was 65.9%.
With OCC1O[C@@H](Oc2c(S[C@@H]3OC(CO)[C@@H](O)C(O)C3O)[nH]c3ccccc23)C(O)C(O)[C@@H]1O (stereo partly drawn) [Calanthoside B, 2-S-β-D-glucopyranosyl-3-O-β-D-glucopyrannosyl-2-mercaptoindole] the “skin blood flow (result in words)” value ([1]; 0.2%) was “increases skin blood flow”.
In the case of O=c1cc(CO)occ1O [Kojic Acid, Kojic acid], the “% Inhibition” value (tyrosinase; concentration 5 (μM)) was 32.5% and 28.2% and 23.9%, the “% Inhibition” value (tyrosinase; concentration 20 (μM)) was 66.0% and 62.2% and 59.3% and the “% Inhibition” value (tyrosinase; concentration 50 (μM)) was 82.7% and 80.3% and 78.6%. For the same compound, the “anti-tyrosinase activity (result in words)” value (tyrosinase; summary of Table 2) was “strong anti-tyrosinase activity”.
